For assay [1], the target named is T1, human IKK-β (Homo sapiens, UniProt O14920).
T1 construct: A cDNA fragment encoding human IKK-β open reading frame was generated by PCR; His; made in house; host or cells: Sf21 insect cells (baculovirus); the GST-IκBα substrate was made in E. coli
T1 sequence (O14920 1-756): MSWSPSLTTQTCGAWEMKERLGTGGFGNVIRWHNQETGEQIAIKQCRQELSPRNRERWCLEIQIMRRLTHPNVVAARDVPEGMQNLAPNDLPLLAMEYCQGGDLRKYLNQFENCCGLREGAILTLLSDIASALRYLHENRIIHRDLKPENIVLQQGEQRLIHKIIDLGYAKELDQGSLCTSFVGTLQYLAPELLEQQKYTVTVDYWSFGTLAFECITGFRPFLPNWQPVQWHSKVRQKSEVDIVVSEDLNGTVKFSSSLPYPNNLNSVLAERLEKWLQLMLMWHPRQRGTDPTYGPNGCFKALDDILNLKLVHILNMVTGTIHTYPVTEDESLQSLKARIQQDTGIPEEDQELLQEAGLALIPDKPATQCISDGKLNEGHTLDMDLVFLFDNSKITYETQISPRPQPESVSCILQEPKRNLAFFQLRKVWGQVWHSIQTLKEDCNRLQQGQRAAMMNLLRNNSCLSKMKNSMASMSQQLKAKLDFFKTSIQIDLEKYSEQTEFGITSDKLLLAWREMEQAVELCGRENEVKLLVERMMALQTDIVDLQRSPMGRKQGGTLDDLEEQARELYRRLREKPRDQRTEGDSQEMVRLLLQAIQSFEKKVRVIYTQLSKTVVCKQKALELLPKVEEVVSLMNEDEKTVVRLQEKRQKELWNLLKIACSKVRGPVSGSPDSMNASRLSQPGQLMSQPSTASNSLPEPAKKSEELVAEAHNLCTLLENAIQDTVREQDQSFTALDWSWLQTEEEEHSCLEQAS
The assay can be described thus: IKK-β kinase inhibitory assay. Conditions: compounds of about 40 to 90% purity, read-out: In vitro activity grade (invitro, IC50). It is filed as biochemical. From the text:
IKK-β Kinase Inhibitory Assay.
• (1) Preparation of IKK-β Kinase Protein. • A cDNA fragment encoding human IKK-β open reading frame was generated by PCR with the use of a pair of primers designed from the published sequence (Woronicz J D et al. (1997) Science 278,866-869). A template was obtained from Quickclone cDNA (Clontech) using Elongase™ Amplification kit (Life Technologies). The DNA fragments generated by PCR were gel-purified and subcloned into pBluescript. The cDNA fragment cloned in pBluescript was inserted into pcDNA3.1/His C KpnI/NotI, and transferred into pVL1393 SmaI/XbaI (Pharmingen) to construct a baculovirus transfer vector. Then the vector, together with the linearized baculovirus (BaculoGold™, Pharmingen) was used to transfect Sf21 cells (Invitrogen, San Diego, Calif.). Generated recombinant baculovirus was cloned and amplified in Sf21 cells, grown in TNM-FH insect cell medium (Life Technologies, Inc.) supplemented with 10% FCS, […] Gentamycin, 0.1% Pluronic F-68 (Life Technologies, Inc.) as suspension culture (200 ml in 1 L Erlenmeyer flask; 27° C.; 130 rpm). Sf21 cells were infected with this amplified virus with a multiplicity of infection of 5 following standard protocols (Crossen R, Gruenwald S (1997) Baculovirus Expression Vector System Instruction Manual, Pharmingen Corporation) and harvested 48 hrs. later. The cells were lysed to obtain the produced chimeric protein of IKK-β kinase fused by histidine (His-tagged IKK-beta). • (2) The Preparation of Purified GST-IκBα Fusion Proteins • An expression vector containing the nucleotide sequence encoding fusion protein of GST with amino acid residues 1 to 54 of IκBα under the control of an IPTG-inducible promoter was constructed. The expression vector was introduced in E. coli and the transformant was cultured and lysed to obtain a GST-IκBα fusion protein. Then the resulting GST-IκBα fusion protein was purified and biotinated for kinase assay. • (3) The Measurement of IKK-β Kinase Activity • The 96-well format kinase assay of IKK-β was performed to test the inhibitory activity of the compounds of the present invention. First, 5 μl of a test compound was put in the presence of 2.5% dimethyl sulfoxide (DMSO) in each well in a U-bottomed 96-well plate (Falcon). For control wells of background (BG) and total phosphorylation (TP), 5 μl of 2.5% DMSO was put. Recombinant IKK-β (final 0.6 μg/ml) and bio-GST-IκBα (1-54) (final 0.2 μM) were diluted in 25 μl of 2×kinase buffer β (40 mM Tris-HCl, pH 7.6, 40 mM MgCl2, 40 mM β-glycerophosphate, 40 mM p-nitrophenyl-phosphate, 2 mM EDTA, 40 mM creatine phosphate, 2 mM DTT, 2 mM Na3VO4, 0.2 mg/ml BSA and 0.8 mM phenylmethylsulfonyl fluoride) and transferred to the 96-well plate. Bio-GST-IκBα (1-54) in 25 μl of 2×kinase buffer β without IKK-β was transferred to BG wells. Then 20 μl of 12.5 μM ATP, 62.5 μCi/ml [γ-^33P] ATP (Amersham Pharmacia Biotech) was added and the resulting mixture was incubated for 2 hrs. at room temperature. The kinase reactions were terminated by the addition of 150 μl of termination buffer (100 mM EDTA, 1 mg/ml BSA, 0.2 mg NaN3). One handred and fifty μl of the sample was transferred to a streptavidin-coated, white MTP (Steffens Biotechniche Analysen GmbH #08114E14. FWD) to capture the biotinylated substrates. After 1 hr. of incubation, non-bound radioactivity was eliminated by washing the wells five times with 300 μl of washing buffer including 0.9% NaCl and 0.1% (w/v) Tween-20 with the use of a MW-96 plate washer (BioTec). The bound radioactivity was determined after the addition of 170 μl MicroScint-PS scintillation cocktail (Packard) using a TopCount scintillation counter. Syk Tyrosine Kinase Inhibitory Assay for Selectivity. • (1) Preparation of Syk Protein • A cDNA fragment encoding human Syk openreading frame was cloned from total RNA of human Burkitt's lymphoma B cell lines, Raji (American Type Culture Collection), with the use of RT-PCR method. […]

The subject of assay [2] is RANTES production in response to TNF-α from A549 cells. The assay can be described thus: RANTES production in response to TNF-α from A549 cells. It is filed as cell-based, human. Conditions: 100 ng/ml TNF-α, compounds of about 40 to 90% purity, read-out: Cellular activity grade (A549, IC50).

pIC50: −log10 of the molar value. Like-named read-outs stand apart in the source and are kept apart here. Bounds are passed on as bounds.

In general, pIC50 refers to −log10 of the IC50, conventionally taken in molar units. Turning to `Nc1cccc(-c2cc(-c3ccccc3O)nc(N)c2C(=O)O)c1` [Example 7-1, Sodium 2-amino-4-(3-aminophenyl)-6-(2-hydroxyphenyl)nicotinate], the pIC50 in assay [1] is 5.00 to 5.70; in assay [2] (Homo sapiens, A549, 24 h), < 5.00.
`N#Cc1c(-c2cccc(N)c2)cc(-c2ncccc2O)nc1N` [Example 1-21]: the negative-log IC50 (pIC50) in assay [1] is 5.00 to 5.70; in assay [2] (Homo sapiens, A549, 24 h), 5.00 to 6.00.
In the same order, the values of `CN1CCN(C(=O)Nc2cccc(-c3cc(-c4ccccc4O)nc(N)c3C#N)c2)CC1` [Example 2-08] are 5.00 to 5.70 and 5.00 to 6.00.
For the molecule `CCN1CCN(CC(=O)Nc2cccc(-c3cc(-c4ccccc4O)nc(N)c3C#N)c2)CC1` [Example 4-06], the pIC50 is 5.70 to 6.30 in assay [1] and 5.00 to 6.00 in assay [2] (Homo sapiens, A549, 24 h).
In the same order, the values of `N#Cc1c(-c2cccc(NC(=O)CNCC3CC3)c2)cc(-c2ccccc2O)nc1N` [Example 4-18] are > 6.30 and 5.00 to 6.00.
`CC(=O)N1CCN(CC(=O)Nc2cccc(-c3cc(-c4ccccc4O)nc(N)c3C#N)c2)CC1` [Example 4-05]: the pIC50 is 5.00 to 5.70 in assay [1] and < 5.00 in assay [2] (Homo sapiens, A549, 24 h).
As to `CC(=O)Nc1ccc(-c2cc(-c3ccccc3O)nc(N)c2CO)cc1O` [Example 8-05], the values for the negative logarithm of the IC50 (pIC50) in assay [1] and in assay [2] (24 hrs) were > 6.30 and 5.00 to 6.00, respectively.
Turning to `COCC(=O)Nc1cccc(-c2cc(-c3ccccc3O)nc(N)c2C#N)c1` [Example 1-04], the pIC50 in assay [1] was 5.70 to 6.30; in assay [2] (Homo sapiens, A549, 24 h), < 5.00.
The matching figures for `N#Cc1c(-c2cccc(NC(=O)CN3CCN(C(=O)c4ccco4)CC3)c2)cc(-c2ccccc2O)nc1N` [Example 4-03]: 5.00 to 5.70 and 5.00 to 6.00.
`CC(C)C[C@H](N)C(=O)Nc1ccc(F)c(-c2cc(-c3ccccc3O)nc(N)c2C#N)c1` [Example 2-11]: the pIC50 in assay [1] was 5.70 to 6.30; in assay [2] (Homo sapiens, A549, 24 h) it was 5.00 to 6.00.
As for `CN(C)CC(=O)Nc1cccc(-c2cc(-c3ccccc3O)nc(N)c2C#N)c1` [Example 4-22], the negative logarithm of the IC50 (pIC50) is 5.70 to 6.30 in assay [1] and 5.00 to 6.00 in assay [2] (Homo sapiens, A549, 24 h).
As to `N#Cc1c(-c2cccc(NC(=O)C3CCC(=O)O3)c2)cc(-c2ncccc2O)nc1N` (centres unmarked) [Example 1-20], the pIC50 is 5.00 to 5.70 in assay [1] and < 5.00 in assay [2] (Homo sapiens, A549, 24 h).
`N#Cc1c(-c2cccc(NC(=O)C[C@H](N)C(=O)O)c2)cc(-c2ccccc2O)nc1N` [Example 2-02]: the negative-log IC50 (pIC50) in assay [1] is 5.70 to 6.30; in assay [2] (24 hrs) it was < 5.00.
For the molecule `N#Cc1c(-c2ccc(Cl)c(NC(=O)CCN)c2)cc(-c2ccccc2O)nc1N` [Example 2-13], the pIC50 was > 6.30 in assay [1] and 5.00 to 6.00 in assay [2] (Homo sapiens, A549, 24 h).
As for `CN1CCN(CC(=O)Nc2cccc(-c3cc(-c4ccccc4O)nc(N)c3C#N)c2)CC1` [Example 4-02], the pIC50 in assay [1] was 5.70 to 6.30; in assay [2] (Homo sapiens, A549, 24 h) it was 5.00 to 6.00.
For `N#Cc1c(-c2cc(NC(=O)CCN)ccc2F)cc(-c2ccccc2O)nc1N` [Example 2-12], the pIC50 in assay [1] was 5.00 to 5.70; in assay [2] (Homo sapiens, A549, 24 h), < 5.00.
As for `N#Cc1c(-c2ccc(N3CCCCC3)c(NC(=O)CCN)c2)cc(-c2ccccc2O)nc1N` [Example 3-03], the pIC50 is > 6.30 in assay [1] and 5.00 to 6.00 in assay [2] (Homo sapiens, A549, 24 h).
On to `N#Cc1c(-c2cccc(NC(=O)C(O)CCC(=O)O)c2)cc(-c2cc(F)ccc2O)nc1N` (centres unmarked) [Example 1-16], for which the pIC50 in assay [1] is 5.70 to 6.30; in assay [2] (Homo sapiens, A549, 24 h), < 5.00.
In the case of `N#Cc1c(-c2ccc(NC(=O)C(O)CCC(=O)O)cc2)cc(-c2ccccc2O)nc1N` (centres unmarked) [Example 1-10], the pIC50 is > 6.30 in assay [1] and < 5.00 in assay [2] (Homo sapiens, A549, 24 h).
`N#Cc1c(-c2ccc(N3CCOCC3)c(NC(=O)CCN)c2)cc(-c2ccccc2O)nc1N` [Example 3-06]: the pIC50 in assay [1] is 5.70 to 6.30; in assay [2] (Homo sapiens, A549, 24 h) it was 5.00 to 6.00.
As for `N#Cc1c(-c2cccc(NC(=O)CN3CCN(C4CCCCC4)CC3)c2)cc(-c2ccccc2O)nc1N` [Example 4-04], the pIC50 in assay [1] is 5.70 to 6.30; in assay [2] (Homo sapiens, A549, 24 h) it was 5.00 to 6.00.
On to `CN(C)c1ccc(NC(=O)CCN2CCCCC2)cc1-c1cc(-c2ccccc2O)nc(N)c1C#N` [Example 3-09], for which the negative-log IC50 (pIC50) is 5.00 to 5.70 in assay [1] and 5.00 to 6.00 in assay [2] (Homo sapiens, A549, 24 h).
On to `N#Cc1c(-c2cccc(O)c2)cc(-c2ccccc2O)nc1N` [Example 1-23], for which the negative-log IC50 (pIC50) is > 6.30 in assay [1] and 5.00 to 6.00 in assay [2] (Homo sapiens, A549, 24 h).
For the molecule `N#Cc1c(-c2ccc(N)c(O)c2)cc(-c2ccccc2O)nc1N` [Example 2-15], the pIC50 in assay [1] was > 6.30; in assay [2] (Homo sapiens, A549, 24 h) it was 5.00 to 6.00.
Regarding `N#Cc1c(-c2ccc(N3CCC[C@H]3CO)c(NC(=O)CCN3CCCCC3)c2)cc(-c2ccccc2O)nc1N` [Example 3-12], the pIC50 was 5.70 to 6.30 in assay [1] and 5.00 to 6.00 in assay [2] (Homo sapiens, A549, 24 h).
With `N#Cc1c(-c2ccccc2C(=O)NCCN2CCCCC2)cc(-c2ccccc2O)nc1N` [Example 6-03], the pIC50 was > 6.30 in assay [1] and 5.00 to 6.00 in assay [2] (Homo sapiens, A549, 24 h).
For `CC(C)C[C@H](N)C(=O)Nc1cc(-c2cc(-c3ccccc3O)nc(N)c2C#N)ccc1N1CCC[C@H]1CO` [Example 3-11], the pIC50 is 5.70 to 6.30 in assay [1] and 5.00 to 6.00 in assay [2] (Homo sapiens, A549, 24 h).
Take `COCCNCC(=O)Nc1cccc(-c2cc(-c3ccccc3O)nc(N)c2C#N)c1` [Example 4-24]: the pIC50 is 5.70 to 6.30 in assay [1] and < 5.00 in assay [2] (Homo sapiens, A549, 24 h).
Turning to `N#Cc1c(-c2cccc(NC(=O)C3CCC(=O)O3)c2)cc(-c2ccccc2O)nc1N` (centres unmarked) [Example 1-03], the results for the pIC50 in assay [1] and in assay [2] (24 hrs) were 5.70 to 6.30 and < 5.00, respectively.
Take `CC(C)C[C@H](N)C(=O)Nc1cc(-c2cc(-c3ccccc3O)nc(N)c2C#N)ccc1N1CCC(NC(=O)C(F)(F)F)C1` (some centres unmarked) [Example 3-16]: the pIC50 in assay [1] is > 6.30; in assay [2] (Homo sapiens, A549, 24 h), 5.00 to 6.00.
The matching figures for `COc1ccc(O)c(-c2cc(-c3cccc(NC(=O)C(O)CCC(=O)O)c3)c(C#N)c(N)n2)c1` (centres unmarked) [Example 1-18]: 5.00 to 5.70 and < 5.00.

Values taken from US7410986B2, “4-6-diphenyl pyridine derivatives as antiinflammatory agents” (Bayer Aktiengesellschaft, priority 2000, dated 2008).
